Laboratory results published in patent US20240343723A1, “CRYSTAL FORM OF LANIFIBRANOR, PREPARATION METHOD THEREFOR, AND USE THEREOF” (CRYSTAL PHARMACEUTICAL (SUZHOU) CO., LTD., priority 2021, published 2024).
“Also recorded” adds a separate entry of the source.

How the values were obtained:
Format in all cases: physicochemical
[1] = Dynamic vapor sorption (DVS) hygroscopicity, with XRPD before and after DVS; conditions: for crystalline state after DVS (XRPD): humidity cycle 0%-95%-0% RH; for weight gain from 0% to 70% RH: 25° C., cycle of 0%-95%-0% RH
Experimental: Dynamic Vapor Sorption (DVS) was measured via an SMS (Surface Measurement Systems Ltd.) intrinsic DVS instrument. The instrument control software is DVS-Intrinsic control software. Typical Parameters for DVS test are as follows: • Temperature: 25° C. • Gas and flow rate: N2, 200 mL/min • RH range: 0% RH to 95% RH Dynamic vapor sorption (DVS) analyzer was applied to evaluate the hygroscopicity of amorphous with a certain amount of sample obtained by Example 6. The weight gains at each relative humidity were recorded in a cycle of 0%-95%-0% RH. […] Dynamic vapor sorption (DVS) analyzer was applied to evaluate hygroscopicity of Form CSV with a certain amount of sample. The weight gains at each relative humidity were recorded in a cycle of 0%-95%-0% RH. Dynamic vapor sorption (DVS) analyzer was applied to evaluate hygroscopicity of Form CSIII with a certain amount of sample. The weight gains at each relative humidity were recorded in a cycle of 0%-95%-0% RH. The XRPD patterns of Form CSIII before and after DVS test are shown in FIG. 13 and the DVS curve of Form CSIII is shown in FIG. 13.

[2] = Physical and chemical stability on storage (XRPD, HPLC); conditions: for chemical purity during storage: HPLC; for Form after storage: XRPD
Experimental: A certain amount of Form CSV of the present disclosure was stored under different conditions of 40° C./75% RH and 60° C./75% RH. Crystalline form and chemical purity were checked by XRPD and HPLC, respectively. Open packaged: Put the sample into a glass vial, cover the vial with aluminum foil, and punch 5-10 holes in the foil. Sealed packaged: Put the sample into a glass vial, and seal the vial and desiccant in an aluminum foil bag. A certain amount of Form CSIII of the present disclosure was stored under different conditions of 25° C./60% RH and 40° C./75% RH with sealed and open packaged. Crystalline form and chemical purity were checked by XRPD and HPLC, respectively. Open packaged: Put the sample into a glass vial, cover the vial with an aluminum foil, and punch 5-10 holes in the foil. Sealed packaged: Put the sample into a glass vial, and seal the vial and desiccant in an aluminum foil bag.

[3] = Adhesiveness: material sticking to the punch after compression; conditions: about 30 mg, 8 mm round tooling, 10 kN held for 30s
Experimental: ENERPAC manual tablet press was used for testing. Approximately 30 mg of Form CSV was weighed and then added into the dies of @8 mm round tooling, compressed at 10 kN and held for 30s. The punch was weighed and the amount of material sticking to the punch was calculated. The compression was repeated twice and the maximum amount and average amount of material sticking to the punch during the compression were recorded.

[4] = Physical stability upon mechanical force (tableting, XRPD)
Description: A certain amount of Form CSV was compressed into tablet under different pressures with suitable tableting die. Crystalline form before and after tableting were checked by XRPD.

[5] = Flowability by compressibility index (bulk and tapped density)
Experimental: Compressibility index is usually utilized to evaluate the flowability of powder or granules during the drug product process. Compressibility index test method is as follows: a certain amount of powder was added into a measuring cylinder and bulk volume was recorded. Then the powder was tapped to make it in the tightest state and the tapped volume was recorded. The bulk density (ρ0) and tapped density (ρf) were calculated and compressibility index was calculated according to c=(ρf−ρ0)/ρf.

[6] = 40° C./75% RH, open and sealed package

Row | chemical purity during storage ([2]; 25° C./60% RH, at least 6 months) | time for which the form is stable ([2]; 25° C./60% RH, sealed and open packaged) | chemical purity during storage ([2]; 40° C./75% RH, at least 2 months) | time for which the form is stable [2, 6] | weight gain from 0% to 70% RH ([1]; DVS) | average adhesion amount [3] | Solid form after tableting ([4]; Pressure 5 kN) | Solid form after tableting ([4]; Pressure 10 kN) | Solid form after tableting ([4]; Pressure 20 kN) | Form after storage ([2]; 40° C./75% RH, open packaged, 9 months) | Form after storage ([2]; 40° C./75% RH, sealed packaged, 9 months) | time for which the form is stable ([2]; 60° C./75% RH, open and sealed package) | Form after storage ([2]; 60° C./75% RH, open packaged, 1 month) | Form after storage ([2]; 60° C./75% RH, sealed packaged, 1 month) | Bulk density [5] | Tapped density [5] | Flowability ([5]; class by compressibility index, ICH Q4B Annex 13) | weight gain of amorphous from 0 to 70% RH relative to that of Form CSV ([1]; DVS, 0 to 70% RH) | weight gain from 0% to 70% RH ([1]; DVS, listed as prior art amorphous) | SMILES | crystalline state after DVS (XRPD) [1]
1 | above 99.5% | at least 6 months | above 99.5% | at least 2 months |  |  |  |  |  |  |  |  |  |  |  |  |  |  |  | O=C(O)CCCc1cc2cc(Cl)ccc2n1S(=O)(=O)c1ccc2ncsc2c1 [Form CSIII, 5-Chloro-1-[(6-benzothiazolyl)sulfonyl]-1H-indole-2-butanoic acid] | remains unchanged
2 |  |  |  | at least 9 months | 0.35% | 0.45 mg | Form CSV | Form CSV | Form CSV | Form CSV | Form CSV | at least 1 month | Form CSV | Form CSV | 0.412 g/mL | 0.515 g/mL | Fair (16-20) |  |  | O=C(O)CCCc1cc2cc(Cl)ccc2n1S(=O)(=O)c1ccc2ncsc2c1 [Form CSV, 5-Chloro-1-[(6-benzothiazolyl)sulfonyl]-1H-indole-2-butanoic acid] | remains unchanged; also recorded: doesn't change
3 |  |  |  |  | 1.18% |  |  |  |  |  |  |  |  |  |  |  |  | about 3.4 times | 1.18% | O=C(O)CCCc1cc2cc(Cl)ccc2n1S(=O)(=O)c1ccc2ncsc2c1 [amorphous, 5-Chloro-1-[(6-benzothiazolyl)sulfonyl]-1H-indole-2-butanoic acid, reference compound] | 
